Assay results as given in the supplement of paper PMC10307832.

Experiments:
Assay in all cases: relative viability (nuclei count vs DMSO), 5 days (fraction); higher = more cells survive
NCI-H650 = test system: NCI-H650
Procedure, shortened: (§1)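 Relative viability is defined as nuclei in treated wells over nuclei in vehicle wells. Duplicate plates were run and medians reported. Lung cancer cell lines in 1536-well plates were dosed by pin tool one day after seeding, with one drug or with a fixed anchor-drug dose plus five library-drug doses (not always all listed) in √10 steps, and nuclei were counted after 5 days.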

NCI-H322M = test system: NCI-H322M
Procedure, shortened: as §1

NCI-H1793 = test system: NCI-H1793
Procedure, shortened: as §1

NCI-H441 = test system: NCI-H441
Procedure, shortened: as §1

LCLC-97TM1 = test system: LCLC-97TM1
Procedure, shortened: as §1

LOU-NH91 = test system: LOU-NH91
Procedure, shortened: as §1

NCI-H2126 = test system: NCI-H2126
Procedure, shortened: as §1

NCI-H3122 = test system: NCI-H3122
Procedure, shortened: as §1

NCI-H1395 = test system: NCI-H1395
Procedure, shortened: as §1

NCI-H1651 = test system: NCI-H1651
Procedure, shortened: as §1

SW 1573 = test system: SW 1573
Procedure, shortened: as §1

Cc1csc(=NC2CCCCC2)n1/N=C/c1ccc(O)c(O)c1O [MIM1] + O=C(c1cc(Cc2n[nH]c(=O)c3ccccc23)ccc1F)N1CCN(C(=O)C2CC2)CC1 [Olaparib] (partner 8 µM)
relative viability (NCI-H650; first compound 0.2 µM): 0.421 | relative viability (NCI-H650; first compound 0.6325 µM): 0.364 | relative viability (NCI-H650; first compound 2 µM): 0.381 | relative viability (NCI-H650; first compound 6.325 µM): 0.357 | relative viability (NCI-H650; first compound 20 µM): 0.127 | relative viability (NCI-H322M; first compound 0.2 µM): 0.742 | relative viability (NCI-H322M; first compound 0.6325 µM): 0.683 | relative viability (NCI-H322M; first compound 2 µM): 0.72 | relative viability (NCI-H322M; first compound 6.325 µM): 0.746 | relative viability (NCI-H322M; first compound 20 µM): 0.367 | relative viability (NCI-H1793; first compound 0.2 µM): 0.942 | relative viability (NCI-H1793; first compound 2 µM): 0.899 | relative viability (NCI-H1793; first compound 6.325 µM): 0.686 | relative viability (NCI-H1793; first compound 20 µM): 0.839 | relative viability (NCI-H441; first compound 0.2 µM): 0.485 | relative viability (NCI-H441; first compound 0.6325 µM): 0.66 | relative viability (NCI-H441; first compound 2 µM): 0.581 | relative viability (NCI-H441; first compound 6.325 µM): 0.254 | relative viability (NCI-H441; first compound 20 µM): 0.144 | relative viability (LCLC-97TM1; first compound 0.2 µM): 0.436 | relative viability (LCLC-97TM1; first compound 0.6325 µM): 0.46 | relative viability (LCLC-97TM1; first compound 2 µM): 0.343 | relative viability (LCLC-97TM1; first compound 6.325 µM): 0.24 | relative viability (LCLC-97TM1; first compound 20 µM): 0.0564 | relative viability (LOU-NH91; first compound 0.2 µM): 0.92 | relative viability (LOU-NH91; first compound 0.6325 µM): 0.922 | relative viability (LOU-NH91; first compound 2 µM): 0.596 | relative viability (LOU-NH91; first compound 6.325 µM): 0.589 | relative viability (LOU-NH91; first compound 20 µM): 0.369 | relative viability (NCI-H2126; first compound 0.2 µM): 0.936 | relative viability (NCI-H2126; first compound 0.6325 µM): 0.879 | relative viability (NCI-H2126; first compound 2 µM): 0.916 | relative viability (NCI-H2126; first compound 6.325 µM): 0.849 | relative viability (NCI-H2126; first compound 20 µM): 0.401 | relative viability (NCI-H3122; first compound 0.2 µM): 0.626 | relative viability (NCI-H3122; first compound 0.6325 µM): 0.643 | relative viability (NCI-H3122; first compound 2 µM): 0.618 | relative viability (NCI-H3122; first compound 6.325 µM): 0.325 | relative viability (NCI-H3122; first compound 20 µM): 0.113 | relative viability (NCI-H1395; first compound 0.2 µM): 0.454 | relative viability (NCI-H1395; first compound 0.6325 µM): 0.485 | relative viability (NCI-H1395; first compound 2 µM): 0.414 | relative viability (NCI-H1395; first compound 6.325 µM): 0.436 | relative viability (NCI-H1395; first compound 20 µM): 0.346 | relative viability (NCI-H1651; first compound 0.2 µM): 0.184 | relative viability (NCI-H1651; first compound 0.6325 µM): 0.174 | relative viability (NCI-H1651; first compound 2 µM): 0.177 | relative viability (NCI-H1651; first compound 6.325 µM): 0.159 | relative viability (NCI-H1651; first compound 20 µM): 0.153 | relative viability (SW 1573; first compound 0.2 µM): 0.515 | relative viability (SW 1573; first compound 0.6325 µM): 0.471 | relative viability (SW 1573; first compound 2 µM): 0.608 | relative viability (SW 1573; first compound 6.325 µM): 0.321 | relative viability (SW 1573; first compound 20 µM): 0.1
